Assay results: patent US6358884B1, “Bacteriocidal and fungicidal solution containing inorganic silver complex salt and process for producing the same” (Sumitomo Metal Mining Co., Ltd., priority 1997, dated 2002)

How the values were obtained:
[1] = test system: Staphylococcus aureus; assay: Bacteriocidal test for Staphylococcus aureus (sprayed filter paper, plate culture); assay type: cell-based
Experimental: Using the same aqueous solution containing silver as the chloro complex salt as in Example 1 above a bacteriocidal effect to Staphylococcus aureus was evaluated. As a comparison, a bacteriocidal test was conducted in the same manner by using a sterilizing ethanol as a bacteriocidal agent instead of the aqueous solution described above. The evaluation method is as shown below.
Each of the test specimen solutions was sprayed each about by 1 g as the bacteriocidal agent do so as to be substantially uniform by using a spray on 5A filter paper of 11 cm diameter and then each filter paper was left in a room with no air conditioning facility at a room temperature for 24 hours. Subsequently, a bacteria solution adjusted to a cell number of 7×10^4 N/ml by a preliminary test was dropped each by 1 ml by using a micro-pipette to each filter paper and further left in a room with no air conditioning facility at a room temperature for 24 hours.
Then, each filter paper was transferred to a sterilized cup, and vigorously shaken for 2 min by a shaker with addition of 100 ml of water. Subsequently, 1 ml of a test solution was sampled from each of sterilized cups, subjected to plate culture at 36° C. for 72 hours each with addition of ordinary agar culture medium, and the number of colonies formed was counted.
Further as a blank test, 1 ml of a solution diluted by 100 times from the bacterial solution described above (the number of cells about 7×10^4 N/ml) was sampled to a Shale without using the bacteriocidal agent, cultivated in the same manner as described above with addition of a usual agar medium, and the number of formed colonies was counted.

[2] = test system: fungi; settings: according to "Metal", vol. 65 (1995), No. 11; cited from earlier work
[3] = test system: bacteria; settings: according to "Metal", vol. 65 (1995), No. 11; cited from earlier work

Compound | Number of cells in Shale ([1]; about 1 g sprayed on filter paper, 1 ml bacteria solution 7×10^4 N/ml, 24 h, plate culture 36° C. 72 hours) | colonies in the Shale ([1]; cultivation time of 48 hours) | Number of cells per filter paper ([1]; per filter paper (1 ml of bacterial solution), plate culture 36° C. 72 hours) | Increase/decrease ratio for Number of cell ([1]; ratio to the number of cells dropped to filter paper (7×10^4 N/ml), 72 hours cultivation) | concentration showing slow releasing fungicidal effect [2] | concentration showing slow releasing bacteriocidal effect [3]
CCO [Sterilizing ethanol, ethanol] | 507 | colonies were already formed | 5.1 × 10^4 | 72.9% |  | 
silver ions |  |  |  |  | ≥ 0.5 mg/L | ≥ 0.05 mg/L
